Type in all cases: cell-based
Test [1] relates to pAKT in T47D (PI3Kα H1047R mutant) cells. Nature of the test: Inhibition of pAKT (alphaLISA Surefire Ultra AKT 1/2/3 pS473) in T47D cells. The note with it: Homo sapiens; T47D (PI3Kα H1047R mutant) cells, 24 hr compound incubation, alphaLISA pS473; read-out: T47D (H1047R) pAKT 24 hr (IC50). In a few lines:
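Cells in HBSS were dosed from 10.4 μm (1:4 serial dilution, 10 concentrations) and incubated about 24 hours at 37° C, then lysed. pAKT S473 measured by alphaLISA after overnight bead incubation. Signal normalised to alpelisib (3.125 μm) and DMSO controls; IC50 from four-parameter fit.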
A general note: Bead proximity is the source of the signal in Alpha formats.

Test [2] concerns T47D (PI3Kα H1047R mutant) cells. Put plainly: Cell viability (CellTiter-Glo 2.0) in T47D cells. Particulars: Homo sapiens, T47D, 72 h, approximately 72 hours. An outline of the steps: (§1)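 SKBR3 or T47D cells, 1000 per well, were seeded overnight and then exposed ~72 h at 37° C to 10 concentrations of compound, 1:4 dilutions from 10 μm. Viability read by CellTiter-Glo luminescence as percent of vehicle; IC50 from four-parameter variable-slope fit.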
In general terms: ATP-based viability assays read luminescence as a measure of living cells.

The test system of test [3] is SKBR3 (PI3Kα wild type) cells. Nature of the test: Cell viability (CellTiter-Glo 2.0) in SKBR3 cells. The note with it: Homo sapiens, SK-BR-3; SKBR3 (PI3Kα wild type) cells, approximately 72 hours, CellTiter-Glo 2.0; read-out: SKBR3 (WT) Viability IC50. An outline of the steps:
as §1

Test [4] relates to pAKT in SKBR3 (PI3Kα wild type) cells. Nature of the test: Inhibition of pAKT (alphaLISA Surefire Ultra AKT 1/2/3 pS473) in SKBR3 cells. The note with it: Homo sapiens, SK-BR-3, approximately 24 hours treatment, read-out: SKBR3 (WT) pAKT IC50. The protocol:
The ability of a compound of Formula (I) to inhibit the formation of pAKT was measured using alphaLISA Surefire Ultra AKT 1/2/3 (pS473) Assay Kit (#ALSU-PAKT-B50K) was obtained from Perkin Elmer (Waltham, MA).
To prepare assay plates for pAKT alphaLISA assays, cells were trypsinized, resuspended in fresh media, and viable cells were counted utilizing trypan blue exclusion. Prior to seeding, cells were washed with PBS and resuspended in HBSS (Gibco, #14025092). T47D (12,000/w), SKBR3 (12,000/w), or MKN1 (24,000/w) cells were seeded at 12 μl per well in a solid white flat bottom 384 cell culture plate (Perkin Elmer #6007680).
Immediately after seeding, cells were dosed using an Echo Liquid Handler (Beckman Coulter) with compounds at a 10.4 μm starting concentration and serially diluted (1:4) for a total of 10 concentrations. […] Plates were then imaged the following day using a CLARIOstar microplate reader (BMG Labtech, Germany).
Percent of control values were calculated by subtracting the average signal from the positive control (alpelisib) treated wells from all treated wells (including DMSO control wells) and then divided by the average signal from the vehicle DMSO treated control wells. Percent of vehicle control values were plotted as log(inhibitor) vs. response—Variable slope (four parameters) for curve fitting and IC50 values were determined using XLfit.

Regarding `Cc1cc(C(C)Nc2ccccc2C(=O)O)c2nc(N3CCCCC3)c(C#N)nc2c1` (stereo not shown) [Example 1, 2-((1-(2-cyano-7-methyl-3-(piperidin-1-yl)quinoxalin-5-yl)ethyl)amino)benzoic acid], the 50% inhibitory concentration (IC50) – broadly, the midpoint of a concentration-inhibition curve – was 39 nM in test [1], 456 nM in test [2], more than 10000 nM in test [3] and more than 10000 nM in test [4].

Regarding `Cc1cc([C@@H](C)Nc2ccc(Cl)nc2C(=O)O)c2nc(N3CCC4(CC3)C(F)(F)C4(F)F)c(C#N)nc2c1` [Example 82, (R)-6-chloro-3-((1-(2-cyano-7-methyl-3-(1,1,2,2-tetrafluoro-6-azaspiro[2.5]octan-6-yl)quinoxalin-5-yl)ethyl)amino)picolinic acid], the figures for the IC50 in test [1], in test [2] and in test [3] were 4.5 nM, 121 nM and 5030 nM, respectively.

Take `Cc1cc([C@@H](C)Nc2ccccc2C(=O)O)c2nc(N3CCC(C)(C)CC3)c(C#N)nc2c1` [Example 61, (R)-2-((1-(2-cyano-3-(4,4-dimethylpiperidin-1-yl)-7-methylquinoxalin-5-yl)ethyl)amino)benzoic acid]: the half-inhibitory concentration (IC50) in test [1] was 38.6 nM; in test [2] it was 513 nM; in test [3], more than 10000 nM.

Take `Cc1cc([C@@H](C)Nc2ccc(Cl)nc2C(=O)O)c2nc(N3CC(C)(C)C3)c(C#N)nc2c1` [Example 56, (R)-6-chloro-3-((1-(2-cyano-3-(3,3-dimethylazetidin-1-yl)-7-methylquinoxalin-5-yl)ethyl)amino)picolinic acid]: the values for the IC50 in test [1], in test [2] and in test [3] were 4.7 nM, 128 nM and more than 10000 nM, respectively.

For `Cc1cc([C@@H](C)Nc2ccc(Cl)nc2C(=O)O)c2nc(N3CCC(F)(F)[C@@H](CO)C3)c(C#N)nc2c1` (single isomer, unassigned) [Example 234A], the figures for the IC50 in test [1], in test [2] and in test [3] were 2.8 nM, 73 nM and more than 10000 nM, respectively.

As for `Cc1cc([C@@H](C)Nc2ccccc2C(=O)O)c2nc(NC[C@]3(C)CC3(F)F)c(C#N)nc2c1` (single isomer, unassigned) [Example 75A], the values for the IC50 in test [1], in test [2] and in test [3] were 52 nM, 701 nM and more than 10000 nM, respectively.

For `Cc1cc([C@@H](C)Nc2ccc(Cl)nc2C(=O)O)c2nc(N3CCc4cnccc4C3)c(C#N)nc2c1` [Example 216, (R)-6-chloro-3-((1-(2-cyano-3-(3,4-dihydro-2,6-naphthyridin-2(1H)-yl)-7-methylquinoxalin-5-yl)ethyl)amino)picolinic acid], the half-maximal inhibitory concentration (IC50) is 0.45 nM in test [1], 48 nM in test [2] and more than 10000 nM in test [3].

On to `Cc1cc([C@@H](C)Nc2ccc(Cl)nc2C(=O)O)c2nc(N3CC4CCC4(F)C3)c(C#N)nc2c1` (single isomer, unassigned) [Example 244B], for which the results for the IC50 in test [1], in test [2] and in test [3] were 1.3 nM, 89 nM and more than 10000 nM, respectively.

As to `C[C@@H](Nc1ccc(Cl)nc1C(=O)O)c1cc(F)cc2nc(C#N)c(N3CCC(F)(F)CC3)nc12` [Example 26, (R)-6-chloro-3-((1-(2-cyano-3-(4,4-difluoropiperidin-1-yl)-7-fluoroquinoxalin-5-yl)ethyl)amino)picolinic acid], the IC50 in test [1] is 1.8 nM; in test [2], 51.5 nM; in test [3], 9800 nM.

As to `Cc1cc([C@@H](C)Nc2ccccc2C(=O)O)c2nc(N3CCOCC3)c(C#N)nc2c1` [Example 57, (R)-2-((1-(2-cyano-7-methyl-3-morpholinoquinoxalin-5-yl)ethyl)amino)benzoic acid], the IC50 is 14 nM in test [1], 165 nM in test [2] and more than 10000 nM in test [3].

For `Cc1cc([C@@H](C)Nc2cccnc2C(=O)O)c2nc(N3CCC(F)(F)C3)c(C#N)nc2c1` [Example 204, (R)-3-((1-(2-cyano-3-(3,3-difluoropyrrolidin-1-yl)-7-methylquinoxalin-5-yl)ethyl)amino)picolinic acid], the IC50 was 58.1 nM in test [1], 393 nM in test [2] and 1850 nM in test [3].

On to `Cc1cc([C@@H](C)Nc2ccc(Cl)nc2C(=O)O)c2nc(N3CCC(F)(F)[C@H](CO)C3)c(C#N)nc2c1` (single isomer, unassigned) [Example 234B], for which the values for the IC50 in test [1], in test [2] and in test [3] were 3.6 nM, 85 nM and more than 10000 nM, respectively.

With `Cc1cc([C@@H](C)Nc2ccc(Cl)nc2C(=O)O)c2nc(N3C[C@H](F)C[C@H]3C)c(C#N)nc2c1` [Example 246C, 6-chloro-3-(((R)-1-(2-cyano-3-((2R,4R)-4-fluoro-2-methylpyrrolidin-1-yl)-7-methylquinoxalin-5-yl)ethyl)amino)picolinic acid], the 50% inhibitory concentration (IC50) was 0.97 nM in test [1], 46 nM in test [2] and 3400 nM in test [3].

As to `Cc1cc([C@@H](C)Nc2ccc(Cl)nc2C(=O)O)c2nc(N3CC4C[C@]4(C(F)(F)F)C3)c(C#N)nc2c1` (single isomer, unassigned) [Example 43B], the IC50 was found to be 16.8 nM in test [1], 271 nM in test [2] and 4030 nM in test [3].

With `C[C@@H](Nc1ccc(Cl)nc1C(=O)O)c1cc(Cl)cc2nc(C#N)c(N3CCC(F)(F)CC3)nc12` [Example 34, (R)-6-chloro-3-((1-(7-chloro-2-cyano-3-(4,4-difluoropiperidin-1-yl)quinoxalin-5-yl)ethyl)amino)picolinic acid], the 50% inhibitory concentration (IC50) is 6.2 nM in test [1], 48.2 nM in test [2] and more than 10000 nM in test [3].

Consider `Cc1cc([C@@H](C)Nc2ccc(Cl)nc2C(=O)O)c2nc(N3C[C@H]4CO[C@H](C4)C3)c(C#N)nc2c1` (single isomer, unassigned) [Example 243B], for which the IC50 in test [1] is 0.52 nM; in test [2], 50 nM; in test [3] it was more than 10000 nM.

In the case of `Cc1cc([C@@H](C)Nc2ccc(Cl)nc2C(=O)O)c2nc(NCC3CC3)c(C#N)nc2c1` [Example 25, (R)-6-chloro-3-((1-(2-cyano-3-((cyclopropylmethyl)amino)-7-methylquinoxalin-5-yl)ethyl)amino)picolinic acid], the results for the IC50 in test [1], in test [2] and in test [3] were 1.2 nM, 175 nM and more than 10000 nM, respectively.

With `Cc1cc([C@@H](C)Nc2ccc(Cl)nc2C(=O)O)c2nc(N3CCc4c(ccn(C)c4=O)C3)c(C#N)nc2c1` [Example 221, (R)-6-chloro-3-((1-(2-cyano-7-methyl-3-(6-methyl-5-oxo-3,4,5,6-tetrahydro-2,6-naphthyridin-2(1H)-yl)quinoxalin-5-yl)ethyl)amino)picolinic acid], the results for the IC50 in test [1], in test [2] and in test [3] were 0.88 nM, 147 nM and more than 10000 nM, respectively.

Consider `COC[C@H]1CN(c2nc3c([C@@H](C)Nc4ccc(Cl)nc4C(=O)O)cc(C)cc3nc2C#N)CCO1` [Example 236B, 6-chloro-3-(((R)-1-(2-cyano-3-((R)-2-(methoxymethyl)morpholino)-7-methylquinoxalin-5-yl)ethyl)amino)picolinic acid], for which the IC50 is 3.6 nM in test [1], 217 nM in test [2] and more than 10000 nM in test [3].

As to `COC[C@H]1[C@H]2CN(c3nc4c([C@@H](C)Nc5ccc(Cl)nc5C(=O)O)cc(C)cc4nc3C#N)C[C@@H]12` [Example 213, 6-chloro-3-(((R)-1-(2-cyano-3-((1R,5S,6S)-6-(methoxymethyl)-3-azabicyclo[3.1.0]hexan-3-yl)-7-methylquinoxalin-5-yl)ethyl)amino)picolinic acid], the IC50 is 0.91 nM in test [1], 61 nM in test [2] and 9550 nM in test [3].

In the case of `Cc1cc([C@@H](C)Nc2ccc(Cl)nc2C(=O)O)c2nc(N3C[C@H](F)C[C@@H]3C)c(C#N)nc2c1` [Example 246B, 6-chloro-3-(((R)-1-(2-cyano-3-((2S,4R)-4-fluoro-2-methylpyrrolidin-1-yl)-7-methylquinoxalin-5-yl)ethyl)amino)picolinic acid], the IC50 was 1.8 nM in test [1], 61 nM in test [2] and 4920 nM in test [3].
